Assays:
[1] = target: HBsAg (Hepatitis B virus genotype D subtype ayw, UniProt P03138); experiment: Activity measured diagnostically with an immunoassay; assay type: binding
Source text: (§1) In certain embodiments, the anti-HBV antibody is HBC34 or an engineered variant thereof. HBC34 are human antibodies against HBsAg with high neutralizing activity. […] The activity of HBC34, as measured diagnostically with an immunoassay, is 5000 IU/mg. As a comparison, the activity of HBIG is ˜1 IU/mg.

[2] = test system: antigenic loop of HBsAg; experiment: Binding of HBC34 to HBsAg antigenic loop, genotypes and mutants; set-up: species or system HBV
Source text: as §1

[3] = test system: HBV; experiment: Preclinical pharmacology of SIRNA01 against HBV
Source text: In some embodiments, the siRNA that targets HBV mRNA is SIRNA01. SIRNA01 is a synthetic, chemically modified siRNA targeting HBV RNA with a covalently attached triantennary N-acetyl-galactosamine (GalNAc) ligand that allows for specific uptake by hepatocytes. […] An SIRNA can have multiple antiviral effects, including degradation of the pgRNA, thus inhibiting viral replication, and degradation of all viral mRNA transcripts, thereby preventing expression of viral proteins. This may result in the return of a functional immune response directed against HBV, either alone or in combination with other therapies. The ability of SIRNA01 to reduce HBsAg-containing noninfectious subviral particles also distinguishes it from currently available treatments.
SIRNA01 targets and inhibits expression of an mRNA encoded by an HBV genome according to NCBI Reference Sequence NC_003977.2 (GenBank Accession No. GI:21326584) (SEQ ID NO:1). More specifically, SIRNA01 targets an mRNA encoded by a portion of the HBV genome comprising the sequence […] (SEQ ID NO:2), which corresponds to nucleotides 1579-1597 of SEQ ID NO:1. Because transcription of the HBV genome results in polycistronic, overlapping RNAs, SIRNA01 results in significant inhibition of expression of most or all HBV transcripts.

[4] = test system: chronic HBV infection; conditions: patients with chronic HBV infection; cited from earlier work
[5] = test system: chronic HBV infection; conditions: after 48 weeks of therapy; cited from earlier work
[6] = test system: chronic HBV infection; conditions: cited from earlier work
[7] = test system: chronic HBV infection; conditions: PEG-IFNα add-on therapy; cited from earlier work

HBC34: human antibody against HBsAg with high neutralizing activity; HC SEQ ID NO:56, LC SEQ ID NO:58
activity, as measured diagnostically with an immunoassay [1]: 5000 IU/mg
HBV genotypes and mutants recognized [2]: all 10 HBV genotypes and 18 mutants
affinity of binding to the antigenic loop of HBsAg [2]: pM range

SIRNA01: synthetic, chemically modified GalNAc-conjugated siRNA targeting HBV RNA; sense strand SEQ ID NO:5, antisense strand SEQ ID NO:6 (sense GUGUGCACUUCGCUUCACA; antisense UGUGAAGCGAAGUGCACACUU; GalNAc-conjugated, chemically modified, pattern not given here)
pharmacological activity against HBV genotypes [3]: pharmacologically active against HBV genotypes A through J
effect in preclinical models ([3]; preclinical models): inhibit viral replication, translation, and secretion of HBsAg
reduction in HBsAg when administered individually [4]: substantial reductions in HBsAg

peginterferon-alfa-2a [PEG-IFNα]
percentage of patients with long-term viral control [5]: < 10%
HBsAg loss, patients overall ([6]; PEG-IFNα 180 g administered weekly for 48-52 weeks, approximately): ≤ 10%
rate of HBsAg loss, subset with low baseline HBsAg ([6]; baseline HBsAg less than approximately 1,000-1,500 IU/mL, with or without an NRTI): 20-40%
mean HBsAg reduction at Week 24 [7]: 0.57 log10 IU/mL
